We go through 18 compounds from US20160106711A1, “3-3-Di-Substituted-Oxindoles as Inhibitors of Translation Initiation” (President and Fellows of Harvard College, priority 2012, published 2016).

The subject of one experiment is CRL-2351. The experiment in a line: Cell growth assay (sulforhodamine B), CRL-2351 cells. Type of experiment: cell-based, human. As to conditions: Homo sapiens, 120 h, 5 days, SRB. The procedure: (§1) Adherent mouse (KLN) and human solid tumor cells (CRL-2351, and CRL-2813) were plated in 96-well plates and maintained for 5 days in the presence of 0.54 to 6 μM of individual compound, and cell proliferation was measured by the sulforhodamine B (SRB) assay as described in ref. 11: briefly, cells were fixed in 10% cold trichloroacetic acid at 4° C. for 1 h, extensively washed with double-distilled H2O and air-dried. Plates were then incubated with 0.4% SRB in 1% acetic acid for 1 h, washed with 1% acetic acid to remove the unbound dye, and air-dried. The bound dye was solubilized by addition of 10 mM Tris (pH 10), and the absorbance was determined in a Titertek Multiscan plate reader at 490 nm. The data calculations were carried out as described (the values for mean±SD of data from replicate wells are calculated): data are expressed in terms of % T/C [(OD of treated cells/OD of control cells)×100], as a measure of cell viability and survival in the presence of test materials. Calculations are also made for the concentration of test agents giving a T/C value of 50%, or 50% growth inhibition (IC50). With the SRB assay, a measure is made of the cell population density at time 0 (the time at which drugs are added) from two extra reference plates of inoculated cells fixed with TCA just prior to drug addition to the test plates. Thus, we have three measurements: control optical density (C), test optical density (T), and optical density at time zero (T0). The calculation is 100×[(T−T0)/(C−T0)]. If T is less than T0, cell killing has occurred and can be calculated from 100×[(T−T0)/T0]. Thus, for each drug-cell line combination, a dose-response curve is generated and three levels of effect are calculated.

In another experiment the test system is CRL-2813. The experiment in a line: Cell growth assay (sulforhodamine B), CRL-2813 cells. As to conditions: Homo sapiens, CRL2813, 120 h, 5 days, SRB. Type of experiment: cell-based, human. The procedure:
as §1

The test system of experiment [1] is eIF2•GTP•Met-tRNAi ternary complex. Briefly: Ternary complex assay (ATF-4 assay), dual luciferase firefly/renilla ratio. The note with it: Mus musculus; for maximal fold induction at 40 µM: read-out: ATF-4 Xmax @ 40 μM. Type of experiment: cell-based, mouse. From the text:
For assay development, a bi-directional plasmid was designed in which a common promoter/enhancer complex drives the transcription of firefly luciferase (F-luc) ORF fused to the 5′ untranslated region (UTR) of ATF-4, and of the renilla luciferase (R-luc) ORF fused to a 90-nucleotide 5′ UTR derived from the plasmid (FIG. 6A). Because the tetracycline-regulated transactivator ((tTA), required for driving transcription from this vector) is not normally expressed in the mammalian cells, stable KLN cancer cells were constructed that expressed tTA (KLN-tTA).
The KLN-tTA colonies that drove expression of reporter genes from pBISA-DL plasmid were selected by transient transfection and dual luciferase assay. One of these KLN-tTA cell lines was transfected with the pBISA-DL^(ATF-4) expression vector, stable colonies were selected by dual luciferase assay and expanded.
Plasmids and Ternary Complex Assay
(ATF-4 Assay). Briefly, bi-directional mammalian expression vector pBI (Clontech, CA) was modified to expand the multiple cloning sites (MCSs) and designated thereafter as pBISA. This vector contains seven copies of the tetracycline-regulated transactivator response element (TRE), which together act as core promoter/enhancer. The TRE is flanked on both sides by minimal human cytomegalovirus (CMV) minimal promoters allowing bi-directional transcription and two MCSs. Firefly and renilla luciferases were subcloned into MCS-I and MCS-II, respectively. This plasmid, designated pBISA-DL, transcribes two mRNAs that contain the 90 nucleotide plasmid derived 5′UTR (same sequence in both mRNAs), and the ORF encoding either firefly or renilla luciferase followed by a polyadenylation sequence as described in Ziegeler, G.; Ming, J.; Koseki, J. C.; Sevinc, S.; Chen, T.; Ergun, S.; Qin, X.; Aktas, B. H. J. Biol. Chem. 2010, 285, 15408 hereby incorporated by reference. This plasmid was further modified by inserting the 5′UTR of ATF-4 into MCS-I in front of the firefly luciferase mRNA. Transcription from this direction generates an mRNA that contains the firefly luciferase ORF preceded by a 5′UTR composed of 90 nucleotides derived from the plasmid and 267 nucleotides derived from the 5′UTR of ATF-4 mRNA. Transcription from the other direction generates an mRNA that contains the renilla luciferase ORF proceeded only by the 90-nucleotide plasmid-derived sequence in the 5′UTR. This expression plasmid is called pBISA-DL(ATF-4). In the dual luciferase assay, cells expressing firefly and renilla luciferases were lysed and the extracts assayed with a Dual-Glo Luciferase assay kit, per manufacturer's instruction (Promega Inc., Madison, Wis.). The data calculations were carried out as the ratio of firefly to renilla luciferase signal as described in Chen, T.; Ozel, D.; Qiao, Y.; Harbinski, F.; Chen, L.; Denoyelle, S.; He, X.; Zvereva, N.; Supko, J. G.; Chorev, M.; Halperin, J. A.; Aktas, B. H. Nat. Chem. Biol. 2011, 7, 610 hereby incorporated by reference.

The test system of a further experiment is KLN. Briefly: Cell growth assay (sulforhodamine B), KLN cells. Type of experiment: cell-based, mouse. The note with it: Mus musculus, 120 h, 5 days, SRB. The procedure:
as §1, with “Adherent mouse (KLN) and human solid tumor cells (CRL-2351, and CRL-2813) were plated in 96-well plates and maintained for 5 days in the presence of 0.54 to 6 μM of individual compound, and cell proliferation was measured by the sulforhodamine B (SRB) assay as described in ref. 11: briefly, cells were fixed in 10% cold trichloroacetic acid at 4° C. for 1 h, extensively washed with double-distilled H2O and air-dried.” left out

Molecules are shown by their SMILES.

On to `CN(C)CCOc1ccc(C(C)(C)C)cc1C1(c2cc(C(C)(C)C)ccc2O)C(=O)N(CCN(C)C)c2ccccc21` (stereo not shown) [HY277], for which the results for the IC50 with CRL-2351, with CRL-2813 and with KLN were 0.3 ± 0.11 µM, 0.9 ± 0.1 µM and 0.3 ± 0.1 µM, respectively. In experiment [1] (read-out: ATF-4 Xmax), the maximal fold induction at 10 µM is 14.3 ± 1.86.

`CN(C)c1ccc(C2(c3cc(C(C)(C)C)ccc3OCCN3CCOCC3)C(=O)Nc3c2ccc(F)c3F)cc1` (stereo not shown) [Sd163]: the IC50 is 4 ± 1 µM in the experiment with CRL-2351, 11 ± 1.3 µM in the experiment with CRL-2813 and 15.7 ± 1.9 µM with KLN. Also, in experiment [1] (read-out: ATF-4 Xmax), the maximal fold induction at 80 µM came out at 5.1 ± 0.1.

With `CC(C)(C)c1ccc(O)c(C2(c3ccc(O)cc3)C(=O)Nc3c2ccc(F)c3F)c1` (stereo not shown) [Sd141], the results for the IC50 in the experiment with CRL-2351, in the experiment on CRL-2813 and with KLN were more than 20 µM, 10.7 ± 3.9 µM and 15.3 ± 1.9 µM, respectively. Moreover, the maximal fold induction at 40 µM in experiment [1] is 2.9 ± 0.6.

Consider `CN1CCN(CCOc2ccc(C(C)(C)C)cc2C2(c3cc(C(C)(C)C)ccc3O)C(=O)Nc3ccccc32)CC1` (stereo not shown) [HY080], for which the IC50 in the experiment with CRL-2351 stood at 0.75 ± 0.1 µM; in the experiment with CRL-2813, 1.4 ± 0.5 µM; with KLN, 2.9 ± 0.8 µM. Moreover, the maximal fold induction at 20 µM in experiment [1] (read-out: ATF-4 Xmax) worked out at 24.6 ± 3.37.

In the case of `CC(C)(C)c1ccc(O)c(C2(c3cc(C(C)(C)C)ccc3OCCN3CCCC3)C(=O)Nc3ccccc32)c1` (stereo not shown) [HY091], the IC50 came out at 1 µM with CRL-2351, 10.7 ± 0.8 µM in the experiment on CRL-2813 and 1.4 ± 0.4 µM in the experiment on KLN. The maximal fold induction at 10 µM in experiment [1] (read-out: ATF-4 Xmax) amounted to 2.73 ± 0.65. In addition, in experiment [1] (read-out: ATF-4 Xmax), the maximal fold induction at 20 µM was 5.3 ± 0.7.

For the compound `COc1ccc(C2(c3cc(C(C)(C)C)ccc3OCCN3CCOCC3)C(=O)Nc3ccccc32)cc1OC` (stereo not shown) [Sd152, 3-{5-tert-butyl-2-[2-(morpholin-4-yl)ethoxy]phenyl}-3-(3,4-dimethoxyphenyl)-indol-2-one], the IC50 in the experiment with CRL-2351, with CRL-2813 and in the experiment with KLN was more than 20 µM each time. Also, the maximal fold induction at 80 µM in experiment [1] (read-out: ATF-4 Xmax) is 2.8.

Turning to `CC(C)(C)c1ccc(OCCN2CCCCC2)c(C2(c3cc(C(C)(C)C)ccc3OCCN3CCCCC3)C(=O)Nc3ccccc32)c1` [HY172], the half-maximal inhibitory concentration (IC50) with CRL-2351 is 2.14 ± 1.28 µM; with CRL-2813, 11.6 ± 1.4 µM; with KLN, 1.3 ± 0.3 µM. Besides, in experiment [1] (read-out: ATF-4 Xmax), the maximal fold induction at 80 µM was determined as 5.91 ± 0.52.

As for `COc1ccc(C2(c3cc(C(C)(C)C)ccc3O)C(=O)Nc3ccccc32)cc1` (stereo not shown) [Sd086], the figures for the concentration for half-maximal inhibition (IC50) in the experiment on CRL-2351, in the experiment with CRL-2813 and in the experiment with KLN were 2.65 ± 0.1 µM, 2.75 ± 0.1 µM and 15.7 ± 1.1 µM, respectively. Besides, the maximal fold induction at 40 µM in experiment [1] is 5.6 ± 0.5.

In the case of `CN(C)CCN1C(=O)C(c2cc(C(C)(C)C)ccc2O)(c2cc(C(C)(C)C)ccc2O)c2ccccc21` [HY087], the IC50 was 2.7 ± 0.2 µM in the experiment on CRL-2351, more than 20 µM with CRL-2813 and more than 20 µM with KLN. Moreover, in experiment [1] (read-out: ATF-4 Xmax), the maximal fold induction at 20 µM was found to be 7.12 ± 1.3.

For `COc1ccc(C2(c3cc(C(C)(C)C)ccc3OCCN3CCOCC3)C(=O)Nc3ccccc32)cc1` (stereo not shown) [Sd139, 3-{5-tert-butyl-2-[2-(morpholin-4-yl)ethoxy]phenyl}-3-(4-methoxyphenyl)-indol-2-one], the concentration for half-maximal inhibition (IC50) with CRL-2351 stood at 2.65 ± 1.5 µM; in the experiment on CRL-2813 it was 2.4 ± 0.9 µM; with KLN it was 4.3 ± 1 µM. The maximal fold induction at 40 µM in experiment [1] stood at 6.3 ± 0.3.

In the case of `CC(C)(C)c1ccc(O)c(C2(c3ccccc3)C(=O)Nc3ccc(I)cc32)c1` (stereo not shown) [Sd223], the values for the IC50 in the experiment with CRL-2351, in the experiment with CRL-2813 and in the experiment on KLN were 3.5 µM, 2.8 ± 0.2 µM and 14.9 ± 3.8 µM, respectively. In experiment [1], the maximal fold induction at 40 µM was 7.2 ± 1.2.

Regarding `CC(C)(C)c1ccc(O)c(C2(c3cc(C(C)(C)C)ccc3OCCN3CCCCC3)C(=O)Nc3ccccc32)c1` (stereo not shown) [HY072], the half-inhibitory concentration (IC50) in the experiment with CRL-2351 stood at 0.7 ± 0.1 µM; in the experiment on CRL-2813, 3.35 ± 0.5 µM; in the experiment on KLN, 2.9 ± 0.4 µM. The maximal fold induction at 20 µM in experiment [1] (read-out: ATF-4 Xmax) stood at 4.15 ± 0.5.

Take `CN(C)c1ccc(C2(c3cc(C(C)(C)C)ccc3O)C(=O)Nc3ccccc32)cc1` (stereo not shown) [Sd153]: the IC50 in the experiment with CRL-2351 amounted to 2.3 ± 0.3 µM; in the experiment with CRL-2813 it was 11 µM; in the experiment with KLN, 10.9 ± 1.3 µM. For the same compound, the maximal fold induction at 40 µM in experiment [1] amounted to 3.55.

Turning to `COc1ccc(C2(c3cc(C(C)(C)C)ccc3OCCN3CCOCC3)C(=O)Nc3ccc(OC)cc32)cc1` (stereo not shown) [Sd185, 3-{5-tert-butyl-2-[2-(morpholin-4-yl)ethoxy]phenyl}-5-methoxy-3-(4-methoxyphenyl)-indol-2-one], the IC50 with CRL-2351 was determined as 4.5 ± 0.7 µM; in the experiment on CRL-2813, 2.9 ± 0.3 µM; in the experiment on KLN, 2.75 ± 0.3 µM. For the same compound, in experiment [1], the maximal fold induction at 40 µM amounted to 3.92 ± 0.16.

As to `COc1ccc(C2(c3cc(C(C)(C)C)ccc3OCCN3CCOCC3)C(=O)Nc3ccc(OC(F)(F)F)cc32)cc1` (stereo not shown) [Sd225], the IC50 in the experiment on CRL-2351 was found to be 2.9 ± 0.27 µM; with CRL-2813, 1.9 ± 0.7 µM; in the experiment with KLN it was 9.3 ± 2.7 µM. In experiment [1], the maximal fold induction at 40 µM was determined as 5.11 ± 0.48.

Regarding `CN(C)CCOc1ccc(C(C)(C)C)cc1C1(c2ccccc2)C(=O)Nc2ccccc21` (stereo not shown) [Sd028, 3-(5-tert-Butyl-2-(2-(dimethylamino)ethoxy)phenyl)-3-phenylindolin-2-one], the IC50 in the experiment on CRL-2351 is 1.4 ± 0.3 µM; in the experiment on CRL-2813, 2.4 ± 0.4 µM; with KLN it was 1.2 ± 0.3 µM. Further, in experiment [1] (read-out: ATF-4 Xmax), the maximal fold induction at 10 µM amounted to 2.69 ± 0.36.

For `O=C1Nc2ccccc2C1(c1ccccc1)c1cc(C2CCCC2)ccc1O` (stereo not shown) [Compound 1289, reference compound], the IC50 in the experiment on CRL-2351 was found to be 3.2 ± 1 µM; in the experiment on CRL-2813, 2.5 ± 0.3 µM; in the experiment on KLN, 16 ± 2.2 µM. Also, the maximal fold induction at 40 µM in experiment [1] was determined as 2.87 ± 2.19.

On to `COC(=O)c1cccc2c1NC(=O)C2(c1ccc(OC)cc1)c1cc(C(C)(C)C)ccc1OCCN1CCOCC1` (stereo not shown) [Sd203, Methyl 3-{5-tert-butyl-2-[2-(morpholin-4-yl)ethoxy]phenyl}-3-(4-methoxyphenyl)-2-oxoindole-7-carboxylate], for which the 50% inhibitory concentration (IC50) came out at 16.3 ± 1.6 µM in the experiment on CRL-2351, 14.6 ± 2.8 µM in the experiment on CRL-2813 and 17 ± 3.5 µM in the experiment on KLN. The maximal fold induction at 5 µM in experiment [1] (cell prints 5 (uM), read-out: ATF-4 Xmax) worked out at 1.51 ± 0.3.
